Measured values as given in PMC5913645, “Methyl phenlactonoates are efficient strigolactone analogs with simple structure” (Journal of Experimental Botany, 2017).

How the values were obtained:
rice leaf segments = assay: Dark-induced leaf senescence; parameters: species or system O. sativa, var. Shiokari; conditions: for transcript level of senescence-associated gene Osl20 / transcript level of senescence-associated gene Osl295: after 5 d of treatment; for change in color of leaf segments, earlier than the control / chlorophyll content of leaf segments / ion leakage of leaf segments compared with the control: dark; for change in color of leaf segments, earlier than the control: 30 °C, change on the third day after treatment; for chlorophyll content of leaf segments: on the third day; for ion leakage of leaf segments compared with the control: sixth and seventh day, no difference in the first 5 d
Procedure: One-week-old rice (O. sativa, var. Shiokari) seedlings were established as mentioned above. Uniform seedlings were transferred to 50 ml tubes containing half-strength Hoagland nutrient solution for 7 d and grown in an incubator under white fluorescent light (130–180 μmol m^−2 s^−1) with 16 h/8 h (L/D) at 28 °C for 1 week. Leaf segments of 2 cm were cut from middle part of third leaves of rice plants. Each segment was put in a well (in 24-well plates) containing 2 ml of 2.5 mM MES buffer with 0.05% Tween-20, and incubated at 30 °C in the dark for 7 d. After application of MPs, color change, chlorophyll content, ion leakage, and gene expression were monitored daily for 7 d.

ShHTL7 = molecular target: T1, ShHTL7 (Striga hermonthica, UniProt A0A0M3PNA2); assay: Intrinsic tryptophan fluorescence assay, ShHTL7; assay type: binding
T1 sequence (A0A0M3PNA2 1-271): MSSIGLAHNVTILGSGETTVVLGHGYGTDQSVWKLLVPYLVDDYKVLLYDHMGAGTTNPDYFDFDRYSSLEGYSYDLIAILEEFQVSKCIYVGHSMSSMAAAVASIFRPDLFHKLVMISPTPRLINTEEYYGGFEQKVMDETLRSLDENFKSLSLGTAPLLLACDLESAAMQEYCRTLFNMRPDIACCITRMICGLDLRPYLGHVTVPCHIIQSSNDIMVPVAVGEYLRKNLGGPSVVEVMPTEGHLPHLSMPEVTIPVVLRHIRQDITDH
Description: Striga hermonthica ShHTL7 cDNA was used, GenBank accession KR013127, kindly provided by Tsuyoshi Ota, The University of Tokyo, Japan. Arabidopsis D14 (AtD14) cDNA, GenBank accession AY097402, was synthesized and cloned into pUC57 (GenScript). ShHTL7 and OsD14 cDNAs were amplified by RT-PCR using the primers shown in Supplementary Table S2, digested with BamHI and XhoI, and ligated into BamHI/XhoI-digested pGEX-6P-1 expression vector (GE Healthcare). […] The plasmids were then transformed into E. coli BL21 (DE3) cells. The cells were grown in LB broth containing ampicillin ([…]), incubated at 37 °C until OD600 of 0.6 and induced with 0.1 mM isopropyl-β-D-thiogalactopyranoside at 16 °C for 16 h. Harvested cells were resuspended in lysis buffer: 50 mM Tris–HCl (pH 8.0), 200 mM NaCl, 0.5% Tween-20 and 2 mM dithiothreitol (DTT). After sonication on ice for 10 min, the lysate was centrifuged at 75 000 g for 30 min at 4 °C. Supernatant was allowed to bind to glutathione–sepharose beads (GE Healthcare) for 2 h at 4 °C, washed 3 times with buffer (50 mM Tris-HCl (pH 8.0), 200 mM NaCl, 2 mM DTT), and eluted by cleaving the GST moiety with PreScission™ Protease (GE Healthcare) at 4 °C overnight. […]

rice d3 mutant = assay: Rice micro tillering bioassay, d3 mutant; assay type: in vivo; conditions: 2.5 μM, hydroponic culture; average of four tillers per plant in treated and untreated samples
Procedure: Rice seeds (WT, d3, d10) were surface-sterilized by washing with 70% ethanol for 1 min and then with 2.5% sodium hypochlorite for 15 min. Seeds were then rinsed thoroughly with sterile MilliQ water and incubated in water for 2 d at 30 °C in the dark. Pre-germinated seeds were transferred to filter papers containing half-strength MS medium in 90 mm Petri dishes and incubated at 30 °C under fluorescent white light (130–180 μmol m^−2 s^−1) for 1 week. Seven-day-old seedlings were transferred to 50 ml falcon tubes (one seedling per tube) containing modified half-strength Hoagland nutrient solution and grown in greenhouse. Plants were treated with MPs at 2.5 μM to 2.5 × 10^–7 μM, using GR24 as positive control. The compounds were applied six times, twice a week. Number of tillers per plant, plant height and fresh biomass were measured at final harvest.

[1] = test system: artificially infested soil and pearl millet as a host; assay: Trial in Burkina Faso, boxes with artificially infested soil; assay type: in vivo; conditions: 1 × 1 m^2 wooden boxes, to be published
Description: This activity was around 17 times weaker than that of GR24, pointing to MP1 as a suitable candidate for the suicidal germination approach. Very recently, we have evaluated the activity of MP1 in a trial conducted in Burkina Faso, in which we used 1 × 1 m^2 wooden boxes filled with artificially infested soil and pearl millet as a host. […] Apart from these three compounds, we observed lower germination activity with P. ramosa seeds than with those of S. hermonthica.

Arabidopsis seedlings [2] = assay: Arabidopsis lateral root density; assay type: in vivo; conditions: 1.0 μM, 8-day-old seedlings
Procedure: Sterilized Arabidopsis seeds were sown on half-strength MS (with 0.5% sucrose+1% agar, 0.5 g l^−1 MES, pH 5.7) plates supplemented with GR24 or MPs (at 1.0 μM). Plates were stored at 4 °C in darkness for 3 d and then vertically grown at 22 °C in a Percival incubator under long day condition (16 h at 22 °C/8 h at 16 °C day/night, 60% relative humidity, 60–70 μmol m^−2 s^−1 white light) for 8 d. For determining the effect on lateral root density and primary root length, at least 30 seedlings were measured using ImageJ software after scanning roots.

Arabidopsis seedlings [3] = assay: Arabidopsis hypocotyl elongation assay; assay type: in vivo; conditions: 1.0 μM, continuous red light
Procedure: Sterilized Arabidopsis seeds were sown on half-strength MS (with 0.5% sucrose+1% agar, 0.5 g l^−1 MES, pH 5.7) plates supplemented with MPs or GR24 (at 1.0 μM). Plates were stored at 4 °C in darkness for 3 d. To initiate germination, plates were exposed to continuous white light for 24 h, then transferred to continuous monochromatic red light (20 μmol m^−2 s^−1, 22 °C) conditions for another 4 d. For hypocotyl length measurement, at least 30 seedlings were measured using the freely available ImageJ software (http://rsbweb.nih.gov/ij/) after taking digital photographs. A monochromatic red light source was applied as described previously ([Wu and Yang, 2010]). Light flow rates were measured using a Li250 quantum photometer (Li-Cor, Lincoln, NE, USA).

| Structure (SMILES) | transcript level of senescence-associated gene Osl20 (rice leaf segments) | transcript level of senescence-associated gene Osl295 (rice leaf segments) | change in color of leaf segments, earlier than the control (rice leaf segments) | chlorophyll content of leaf segments (rice leaf segments) | ion leakage of leaf segments compared with the control (rice leaf segments) | Kd (ShHTL7) | high-tillering phenotype of SL-insensitive d3 mutant (rice d3 mutant) | germination activity in soil box trial [1] | reduction of lateral root number/density (Arabidopsis seedlings [2]) | inhibition of hypocotyl growth (Arabidopsis seedlings [3]) |
| --- | --- | --- | --- | --- | --- | --- | --- | --- | --- | --- |
| COC(=O)/C(=C/OC1C=C(C)C(=O)O1)c1ccccc1 (centres unmarked) [MP3, (E)-methyl 3-(4-methyl-5-oxo-2,5-dihydrofuran-2-yloxy)-2-phenylacrylate] | striking increase in their transcripts, which was more pronounced | striking increase in their transcripts, which was more pronounced | about 2 d | clear reduction | striking increase | – | – | – | – | – |
| CC1=CC(OC=C2C(=O)OC3c4ccccc4CC23)OC1=O (centres unmarked) [GR24, reference compound] | striking increase | striking increase | about 2 d | clear reduction | striking increase | 440 ± 210 nM | neither MPs nor GR24 could restore the high-tillering phenotype | – | – | – |
| COC(=O)/C(=C/OC1C=C(C)C(=O)O1)c1ccc([N+](=O)[O-])cc1 (centres unmarked) [MP1, (E)-methyl 3-(4-methyl-5-oxo-2,5-dihydrofuran-2-yloxy)-2-(4-nitrophenyl)acrylate] | – | – | – | – | – | – | – | significantly higher germination activity than GR24 | most efficient compound and showed an activity higher than that of GR24 | – |
| COC(=O)/C(=C/OC1C=C(C)C(=O)O1)c1ccc(Cl)cc1 (centres unmarked) [MP7] | – | – | – | – | – | 1150 ± 310 nM | – | – | slightly more active than GR24 | stronger inhibitory effect than GR24 |
